The nature of data set [1]: PAMPA (parallel artificial membrane permeability assay). It is filed as in vitro ADME. Particulars: PAMPA. In short, it runs like this: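 Artificial membrane was 10% (w/v) egg lecithin plus 0.5% (w/v) cholesterol in dodecane on a PVDF filter. A 10 mM DMSO stock was added at 0.5% (v/v) to donor buffer (50 mM MOPSO, pH 6.5, 5.0% glycocholic acid). After 18 h at 37 °C, LC/MS or LC/UV gave donor and acceptor levels for Pe.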
(In general: The PAMPA barrier holds no transporters, so it reflects passive diffusion.)

Data set [2] in a line: Metabolic stability in human hepatic microsome. It is filed as in vitro ADME. The note with it: microsomes.
Where [3] appears, read: membrane permeation rate (Pe), 50 mM MOPSO buffer pH 6.5 with 5.0% glycocholic acid, 37° C., 18 hours, read-out: iPAMPA Pe.
The mark [4] stands for this setting: pH 7.4, human hepatic microsome, NADPH(+), read-out: CL NADPH(+).

The structures appear in SMILES notation. Read-outs that look alike come from different tables or passages of the source. Starred links: 1 amine or outer side, 2 acyl side, 3 side chain; linkers in the order of their positions; H or OH if unused. Positions of bridges follow the written chain, without caps; N, C: chain ends. Non-standard residues stand in square brackets, D forms with d. Residues, ends and D or L forms follow the SMILES beside them. *: point of attachment. NMeF = CN[C@@H](Cc1ccccc1)C(=O)O; NMeGABA = CN(CCCC(=O)[*:2])[*:1]; NMeI = CC[C@H](C)[C@H](NC)C(=O)O; NMeL = CN[C@@H](CC(C)C)C(=O)O; NMeV = CN[C@H](C(=O)O)C(C)C; NMeA = CN[C@@H](C)C(=O)O; Piperidide = C1CCN(*)CC1; dNMeA = CN[C@H](C)C(=O)O; Sar = CNCC(=O)O

Drawing on US9409952B2, “Peptide-compound cyclization method” (Chugai Seiyaku Kabushiki Kaisha, priority 2011, dated 2016), this text covers Papp and microsomal CLint for seven compounds.

Consider `CC[C@H](C)[C@H]1C(=O)N[C@H](C(=O)N2CCCCC2)CC(=O)N(C)[C@H](C)C(=O)N(C)[C@@H](C(C)C)C(=O)N[C@@H](Cc2ccccc2)C(=O)N[C@@H](CC(C)C)C(=O)N(C)[C@@H](C)C(=O)N[C@@H]([C@@H](C)O)C(=O)N[C@@H](Cc2ccccc2)C(=O)N(C)[C@@H](CC(C)C)C(=O)N[C@@H](CC(C)C)C(=O)NCC(=O)N1C` [DP-223] ([dNMeA][NMeV]FL[NMeA]TF[NMeL]LG[NMeI]D-Piperidide; lactam N-12), for which the Papp at 18 hours, 50 µM in data set [1] (setting [3]) was determined as 23 ×10⁻⁶ cm/s. Also, in data set [2] (setting [4]), the microsomal CLint at 1 uM came out at 42 µL/min/mg.

The compound `CC[C@H](C)[C@H]1C(=O)N[C@@H](Cc2ccccc2)C(=O)N(C)[C@@H](CC(C)C)C(=O)N[C@@H](CC(C)C)C(=O)N[C@H](C(=O)N2CCCCC2)CC(=O)N(C)[C@H](C)C(=O)N[C@@H](CC(C)C)C(=O)N(C)[C@@H](C)C(=O)N2CCC[C@H]2C(=O)N[C@@H]([C@@H](C)O)C(=O)N(C)[C@@H](Cc2ccccc2)C(=O)NCC(=O)N1C` [DP-224] ([dNMeA]L[NMeA]PT[NMeF]G[NMeI]F[NMeL]LD-Piperidide; lactam N-12) gave a Papp at 18 hours, 50 µM in data set [1] (pH 6.5) of 18 ×10⁻⁶ cm/s. In addition, the microsomal CLint at 1 uM in data set [2] (human, pH 7.4, CL NADPH(+)) came out at 18 µL/min/mg.

As to `CC[C@H](C)[C@H]1C(=O)N(C)[C@@H](CC(C)C)C(=O)N[C@H](C(=O)N2CCCCC2)CC(=O)N(C)CCCC(=O)N(C)[C@@H](Cc2ccccc2)C(=O)N[C@@H](Cc2ccccc2)C(=O)N2CCC[C@H]2C(=O)N[C@@H](CC(C)C)C(=O)N(C)[C@@H](C(C)C)C(=O)N[C@@H]([C@@H](C)O)C(=O)N(C)CC(=O)N[C@@H](C)C(=O)N1C` [DP-225] ([NMeGABA][NMeF]FPL[NMeV]T[Sar]A[NMeI][NMeL]D-Piperidide; lactam N-12), in data set [1] (setting [3]), the Papp at 18 hours, 50 µM was found to be 16 ×10⁻⁶ cm/s. The microsomal CLint at 1 uM in data set [2] (setting [4]) was found to be 32 µL/min/mg.

Turning to `CC[C@H](C)[C@@H]1NC(=O)[C@H](Cc2ccccc2)N(C)C(=O)[C@H](Cc2ccccc2)NC(=O)[C@H](C(C)C)N(C)C(=O)[C@H](CC(C)C)N(C)C(=O)[C@H](CC(C)C)NC(=O)[C@@H](C)NC(=O)C[C@@H](C(=O)N2CCCCC2)NC(=O)[C@H]([C@@H](C)O)NC(=O)[C@H](C)NC(=O)[C@H](C)N(C)C1=O` [DP-226] ([dA]L[NMeL][NMeV]F[NMeF]I[NMeA]ATD-Piperidide; lactam N-11), the Papp at 18 hours, 50 µM in data set [1] (setting [3]) turned out to be 32 ×10⁻⁶ cm/s. Also, the microsomal CLint at 1 uM in data set [2] (setting [4]) was 46 µL/min/mg.

For the compound `CC[C@H](C)[C@H]1C(=O)N[C@@H]([C@@H](C)O)C(=O)N[C@@H](Cc2ccccc2)C(=O)N2CCC[C@H]2C(=O)NCC(=O)N(C)[C@@H](CC(C)C)C(=O)N[C@H](C(=O)N2CCCCC2)CC(=O)N[C@H](C)C(=O)N[C@@H](Cc2ccccc2)C(=O)N(C)[C@@H](CC(C)C)C(=O)N[C@@H](CC(C)C)C(=O)N1C` [DP-227] ([dA]F[NMeL]L[NMeI]TFPG[NMeL]D-Piperidide; lactam N-11), the Papp at 18 hours, 50 µM in data set [1] (pH 6.5) stood at 38 ×10⁻⁶ cm/s. The microsomal CLint at 1 uM in data set [2] (human, pH 7.4, CL NADPH(+)) worked out at 141 µL/min/mg.

As for `CC[C@H](C)[C@H]1C(=O)N[C@@H]([C@@H](C)O)C(=O)N[C@@H](CC(C)C)C(=O)N[C@H](C(=O)N2CCCCC2)CC(=O)N[C@H](C)C(=O)N(C)[C@@H](CC(C)C)C(=O)N(C)[C@@H](CC(C)C)C(=O)N(C)[C@@H](Cc2ccccc2)C(=O)N(C)[C@@H](CC(C)C)C(=O)N(C)[C@@H](Cc2ccccc2)C(=O)N[C@@H](C)C(=O)N1C` [DP-228] ([dA][NMeL][NMeL][NMeF][NMeL][NMeF]A[NMeI]TLD-Piperidide; lactam N-11), the Papp at 18 hours, 50 µM in data set [1] (setting [3]) is 5.2 ×10⁻⁶ cm/s. Moreover, the microsomal CLint at 1 uM in data set [2] (setting [4]) was determined as 28 µL/min/mg.

Regarding `CC[C@H](C)[C@H]1C(=O)N[C@@H](Cc2ccccc2)C(=O)N[C@H](C(=O)N2CCCCC2)CC(=O)N[C@H](C)C(=O)N[C@@H](C)C(=O)N(C)[C@@H](CC(C)C)C(=O)N(C)[C@@H](CC(C)C)C(=O)N(C)[C@@H](Cc2ccccc2)C(=O)N[C@@H]([C@@H](C)O)C(=O)N(C)[C@@H](C)C(=O)N(C)[C@@H](C(C)C)C(=O)N1C` [DP-229] ([dA]A[NMeL][NMeL][NMeF]T[NMeA][NMeV][NMeI]FD-Piperidide; lactam N-11), in data set [1] (setting [3]), the Papp at 18 hours, 50 µM amounted to 33 ×10⁻⁶ cm/s. Also, in data set [2] (setting [4]), the microsomal CLint at 1 uM stood at 100 µL/min/mg.
